Values quoted from earlier work, collected in patent publication US20050065132A1, “2-alkylidene-19-nor-vitamin D derivatives for the treatment or prevention of a secon hip fracture” (Pfizer Inc, priority 2003, published 2005).
Read-outs that look alike come from different tables or passages of the source.

What was measured:
[1] = test system: intestinal calcium transport
[2] = test system: serum calcium (bone calcium mobilization); conditions: given for 7 days in a chronic mode, 130 and 260 pmol/day
[3] = 130 or 260 pmol dose, chronic 7 days

| Compound | change in intestinal calcium transport ([1]; 260 pmol/day, only dose tested) | bone calcium mobilization [2] | change in intestinal calcium transport [1, 3] |
| --- | --- | --- | --- |
| C=C1/C(=C\C=C2/CCC[C@]3(C)[C@@H]([C@H](C)CCCC(C)(C)O)CC[C@@H]23)C[C@@H](O)C[C@@H]1O [1,25-(OH)2D3, 1,25-dihydroxyvitamin D3, reference compound] | expected elevation |  |  |
| C=C1[C@H](O)CC(=C/C=C2\CCC[C@]3(C)[C@@H]([C@H](C)CCCC(C)(C)O)CC[C@@H]23)C[C@H]1O [2-Methylene-19-Nor-1,25-(OH)2D3, 1α,25-dihydroxy-2-methylene-19-nor-vitamin D3] |  | extremely strong | no intestinal calcium transport activity |
| C=C1[C@H](O)CC(=C/C=C2\CCC[C@]3(C)[C@@H]([C@@H](C)CCCC(C)(C)O)CC[C@@H]23)C[C@H]1O [2-Methylene-19-Nor-20S-1,25-(OH)2D3, (20S)-1α,25-dihydroxy-2-methylene-19-nor-vitamin D3] |  | most potent compound tested | no significant change |
